The record followed here is ChEMBL document CHEMBL4376833, “Influence of Non-natural Cationic Amino Acids on the Biological Activity Profile of Innate Defense Regulator Peptides” (J Med Chem, 2019).

Active and inactive are the calls of the source. The rule behind the calls is not given here. Non-standard residues stand in square brackets, D forms with d. Residues, ends and D or L forms follow the SMILES beside them. hArg = N=C(N)NCCCC[C@H](N)C(=O)O; Agb = N=C(N)NCC[C@H](N)C(=O)O; Agp = N=C(N)NC[C@H](N)C(=O)O; Orn = NCCC[C@H](N)C(=O)O; Dap = NC[C@H](N)C(=O)O

Test [1] concerns Staphylococcus aureus. Kind of test: Antibiofilm activity against methicillin-resistant Staphylococcus aureus assessed as inhibition of biofilm formation incubated for overnight by crystal violet staining based microtiter plate assay. It counts as functional, organism-based.
Test [2] deals with Staphylococcus aureus. Kind of test: Antibacterial activity against methicillin-resistant Staphylococcus aureus assessed as alteration in bacterial growth incubated for overnight by microtiter plate based spectrophotometric analysis. Format: functional, organism-based.
Test [3] deals with Staphylococcus aureus. Kind of test: Antibiofilm activity against methicillin-resistant Staphylococcus aureus assessed as inhibition of biofilm formation by measuring residual biofilm growth incubated for overnight at 10-fold dilution by crystal violet staining based microtiter plate assay relative to control. Format: functional.

As to `CC[C@H](C)[C@H](NC(=O)[C@H](CCCNC(=N)N)NC(=O)[C@@H](NC(=O)[C@H](C)NC(=O)[C@@H](NC(=O)[C@@H](NC(=O)[C@H](CC(C)C)NC(=O)[C@H](CCCNC(=N)N)NC(=O)[C@@H](N)C(C)C)[C@@H](C)CC)C(C)C)C(C)C)C(=O)N[C@@H](CNC(=N)N)C(=O)N[C@@H](CCCNC(=N)N)C(=O)N[C@@H](CCCNC(=N)N)C(N)=O` (H-VRLIVAVRI[Agp]RR-NH2), the inhibition entry with Staphylococcus aureus [1] was “Dose-dependent effect”. In addition, in the test on Staphylococcus aureus [2], the outcome was Active. Moreover, in the test on Staphylococcus aureus [3], the “residual biofilm growth (% of control)” value turned out to be 102.9%.
Consider `CC[C@H](C)[C@H](NC(=O)[C@H](CCCNC(=N)N)NC(=O)[C@@H](NC(=O)[C@H](CCNC(=N)N)NC(=O)[C@@H](NC(=O)[C@@H](NC(=O)[C@H](CC(C)C)NC(=O)[C@H](CCCNC(=N)N)NC(=O)[C@@H](N)C(C)C)[C@@H](C)CC)C(C)C)C(C)C)C(=O)N[C@@H](Cc1c[nH]c2ccccc12)C(=O)N[C@@H](CCCNC(=N)N)C(=O)N[C@@H](CCCNC(=N)N)C(N)=O` (H-VRLIV[Agb]VRIWRR-NH2), for which the inhibition result with Staphylococcus aureus [1] was “Dose-dependent effect”. Also, the result with Staphylococcus aureus [2] was Active. In addition, the “residual biofilm growth (% of control)” value in the test with Staphylococcus aureus [3] was determined as 105.9%.
The like results for H-VRLRVAVRIWRR-NH2 were, in that order, “Dose-dependent effect”, “Active” and 15%.
In the same order, the values of `CC[C@H](C)[C@H](NC(=O)[C@H](CC(C)C)NC(=O)[C@H](CCCNC(=N)N)NC(=O)[C@@H](N)C(C)C)C(=O)N[C@@H](CCCN)C(=O)N[C@@H](C)C(=O)N[C@H](C(=O)N[C@@H](CCCNC(=N)N)C(=O)N[C@H](C(=O)N[C@@H](Cc1c[nH]c2ccccc12)C(=O)N[C@@H](CCCNC(=N)N)C(=O)N[C@@H](CCCNC(=N)N)C(N)=O)[C@@H](C)CC)C(C)C` (H-VRLI[Orn]AVRIWRR-NH2) are “Dose-dependent effect”, “Active” and 103%.
Turning to `CC[C@H](C)[C@H](NC(=O)[C@H](CCCNC(=N)N)NC(=O)[C@@H](NC(=O)[C@H](C)NC(=O)[C@@H](NC(=O)[C@H](CN)NC(=O)[C@H](CC(C)C)NC(=O)[C@H](CCCNC(=N)N)NC(=O)[C@@H](N)C(C)C)C(C)C)C(C)C)C(=O)N[C@@H](Cc1c[nH]c2ccccc12)C(=O)N[C@@H](CCCNC(=N)N)C(=O)N[C@@H](CCCNC(=N)N)C(N)=O` (H-VRL[Dap]VAVRIWRR-NH2), in the test with Staphylococcus aureus [1], the inhibition result was “Dose-dependent effect”. Moreover, the outcome in the test with Staphylococcus aureus [2] was Active. For the same compound, the “residual biofilm growth (% of control)” value in the test on Staphylococcus aureus [3] was 108.3%.
In the same order, the values of `CC[C@H](C)[C@H](NC(=O)[C@H](CCCNC(=N)N)NC(=O)[C@@H](NC(=O)[C@H](C)NC(=O)[C@@H](NC(=O)[C@@H](NC(=O)[C@H](CC(C)C)NC(=O)[C@H](CCCNC(=N)N)NC(=O)[C@@H](N)CNC(=N)N)[C@@H](C)CC)C(C)C)C(C)C)C(=O)N[C@@H](Cc1c[nH]c2ccccc12)C(=O)N[C@@H](CCCNC(=N)N)C(=O)N[C@@H](CCCNC(=N)N)C(N)=O` (H-[Agp]RLIVAVRIWRR-NH2) are “Dose-dependent effect”, “Active” and 10.6%.
As to `CC[C@H](C)[C@H](NC(=O)[C@H](CC(C)C)NC(=O)[C@H](CCCNC(=N)N)NC(=O)[C@@H](N)C(C)C)C(=O)N[C@H](C(=O)N[C@@H](C)C(=O)N[C@H](C(=O)N[C@@H](CCCNC(=N)N)C(=O)N[C@@H](CCNC(=N)N)C(=O)N[C@@H](Cc1c[nH]c2ccccc12)C(=O)N[C@@H](CCCNC(=N)N)C(=O)N[C@@H](CCCNC(=N)N)C(N)=O)C(C)C)C(C)C` (H-VRLIVAVR[Agb]WRR-NH2), the inhibition result in the test with Staphylococcus aureus [1] was “Dose-dependent effect”. Also, the result in the test with Staphylococcus aureus [2] was Active. Moreover, in the test with Staphylococcus aureus [3], the “residual biofilm growth (% of control)” value is 103.6%.
Turning to `CC[C@H](C)[C@H](NC(=O)[C@H](CCCNC(=N)N)NC(=O)[C@@H](NC(=O)[C@H](C)NC(=O)[C@@H](NC(=O)[C@H](CNC(=N)N)NC(=O)[C@H](CC(C)C)NC(=O)[C@H](CCCNC(=N)N)NC(=O)[C@@H](N)C(C)C)C(C)C)C(C)C)C(=O)N[C@@H](Cc1c[nH]c2ccccc12)C(=O)N[C@@H](CCCNC(=N)N)C(=O)N[C@@H](CCCNC(=N)N)C(N)=O` (H-VRL[Agp]VAVRIWRR-NH2), in the test on Staphylococcus aureus [1], the inhibition entry is “Dose-dependent effect”. Further, the result in the test on Staphylococcus aureus [2] was Active. Moreover, the “residual biofilm growth (% of control)” value with Staphylococcus aureus [3] came out at 104.1%.
Consider `CC[C@H](C)[C@H](NC(=O)[C@H](CCCNC(=N)N)NC(=O)[C@@H](NC(=O)[C@H](C)NC(=O)[C@@H](NC(=O)[C@@H](NC(=O)[C@H](CC(C)C)NC(=O)[C@H](CCCNC(=N)N)NC(=O)[C@@H](N)CCCN)[C@@H](C)CC)C(C)C)C(C)C)C(=O)N[C@@H](Cc1c[nH]c2ccccc12)C(=O)N[C@@H](CCCNC(=N)N)C(=O)N[C@@H](CCCNC(=N)N)C(N)=O` (H-[Orn]RLIVAVRIWRR-NH2), for which the inhibition entry in the test with Staphylococcus aureus [1] was “Dose-dependent effect”. The result with Staphylococcus aureus [2] was Active. In addition, the “residual biofilm growth (% of control)” value in the test with Staphylococcus aureus [3] stood at 12.2%.
As to `CC[C@H](C)[C@H](NC(=O)[C@H](CCCNC(=N)N)NC(=O)[C@@H](NC(=O)[C@H](C)NC(=O)[C@@H](NC(=O)[C@@H](NC(=O)[C@H](CC(C)C)NC(=O)[C@H](CCCNC(=N)N)NC(=O)[C@@H](N)C(C)C)[C@@H](C)CC)C(C)C)C(C)C)C(=O)N[C@@H](CCCCNC(=N)N)C(=O)N[C@@H](CCCNC(=N)N)C(=O)N[C@@H](CCCNC(=N)N)C(N)=O` (H-VRLIVAVRI[hArg]RR-NH2), in the test with Staphylococcus aureus [1], the inhibition entry is “Dose-dependent effect”. The outcome in the test with Staphylococcus aureus [2] was Active. For the same compound, the “residual biofilm growth (% of control)” value in the test with Staphylococcus aureus [3] worked out at 37.2%.
The like results for `CC[C@H](C)[C@H](NC(=O)[C@H](CCCNC(=N)N)NC(=O)[C@@H](NC(=O)[C@H](C)NC(=O)[C@@H](NC(=O)[C@H](CCCN)NC(=O)[C@H](CC(C)C)NC(=O)[C@H](CCCNC(=N)N)NC(=O)[C@@H](N)C(C)C)C(C)C)C(C)C)C(=O)N[C@@H](Cc1c[nH]c2ccccc12)C(=O)N[C@@H](CCCNC(=N)N)C(=O)N[C@@H](CCCNC(=N)N)C(N)=O` (H-VRL[Orn]VAVRIWRR-NH2) were, in that order, “Dose-dependent effect”, “Active” and 36.9%.
In the same order, the values of `CC[C@H](C)[C@H](NC(=O)[C@H](CCCNC(=N)N)NC(=O)[C@@H](NC(=O)[C@H](C)NC(=O)[C@@H](NC(=O)[C@@H](NC(=O)[C@H](CN)NC(=O)[C@H](CCCNC(=N)N)NC(=O)[C@@H](N)C(C)C)[C@@H](C)CC)C(C)C)C(C)C)C(=O)N[C@@H](Cc1c[nH]c2ccccc12)C(=O)N[C@@H](CCCNC(=N)N)C(=O)N[C@@H](CCCNC(=N)N)C(N)=O` (H-VR[Dap]IVAVRIWRR-NH2) are “Dose-dependent effect”, “Active” and 104.7%.
Turning to `CC[C@H](C)[C@H](NC(=O)[C@H](CCCNC(=N)N)NC(=O)[C@@H](NC(=O)[C@H](C)NC(=O)[C@@H](NC(=O)[C@@H](NC(=O)[C@H](CC(C)C)NC(=O)[C@H](CCCNC(=N)N)NC(=O)[C@@H](N)C(C)C)[C@@H](C)CC)C(C)C)C(C)C)C(=O)N[C@@H](Cc1c[nH]c2ccccc12)C(=O)N[C@@H](CCCNC(=N)N)C(=O)N[C@@H](CCCCNC(=N)N)C(N)=O` (H-VRLIVAVRIWR[hArg]-NH2), the inhibition result with Staphylococcus aureus [1] was “Dose-dependent effect”. Besides, in the test on Staphylococcus aureus [2], the result was Active. The “residual biofilm growth (% of control)” value with Staphylococcus aureus [3] is reported as 8.5%.
